Laboratory results published in US7914800B2, “LTB4 as vaccine adjuvant” (priority 2001, dated 2011).
“Also recorded” adds a separate entry of the source.

What was measured:
B lymphocytes = conditions: cited from earlier work
murine CMV [1] = assay: Neutralizing CMV antibodies in sera of CMV-infected mice (plaque reduction on mouse embryonic fibroblast); format: in vivo, BALB/c mice; conditions: the 7 positive sera of LTB4 treated mice; 1/100 dilution; 175 pfu murine CMV
Protocol: Lastly, the sera from each mouse infected with CMV and treated with saline or LTB4 (see above) were analyzed for neutralizing antibodies. Briefly, a 1/100 dilution of individual serum was incubated with 175 pfu of murine CMV for 1 hour on ice. Samples (sera-virus) were then added to mouse embryonic fibroblast and incubated at 37° C. for 2 hour. Unadsorbed viruses were removed and cells were overlaid with methyl cellulose and incubated for 4 days at 37° C. in a humidified atmosphere with 5% CO2. At this time cells were fixed, colored with violet crystal and the number of plaques (CMV infected foci) counted. […] Uninfected mice had no neutralizing antibodies against CMV, as expected. […] We next compared the neutralizing activity of sera that tested positive for CMV neutralization. The 2 sera of infected mice that received saline were able to reduce, in average, CMV infectivity by 24%. In contrast, the 7 sera of LTB4 treated-mice were found capable of reducing CMV infectivity by 45%, almost twice the activity of control mice.
The serum from each mouse, described above, were tested for their CMV neutralizing activity. Briefly, a 1/100 dilution of individual serum was incubated with 175 pfu of murine CMV for 1 hour on ice. […] At this time cells were fixed, colored with violet crystal and the number of plaques (CMV infected foci) counted. […]

Influenza = assay: Anti-Influenza antibody generation in BALB/c mice following immunization with the Fluviral vaccine (ELISA); format: in vivo; conditions: intramuscular
Protocol: To test the adjuvant potential of LTB4, groups of 10 BALB/c mice were immunized once by intramuscular injection with 5 μl of the commercial “Fluviral” vaccine preparation in combination with saline or 1 ng of LTB4. Fourteen days following immunization, mice were bled and sera analyzed for specific anti-Influenza IgG antibodies by ELISA.
Adult (6-8 weeks) BALB/c female mice were immunized by intramuscular injection with 5 μl of the commercial Influenza (Fluviral) vaccine in combination or not with 1 ng of LIB4. Fourteen days later, mice were bled by cardiac puncture and sera obtained. Anti-Influenza antibodies were quantitated by enzyme-linked immunosorbent assay (ELISA). Wells of a 96-well plate were coated with the Fluvial vaccine preparation ( 1/100 dilution) in 0.1 M carbonate buffer (pH 9.0) by overnight incubation at 4° C. Wells were washed with Tris-buffered saline with 0.1% Tween-20 (TBS-T) followed by the addition of 100 μl of increasing dilutions of the sera to be tested. […] After 30 minutes, the absorbance (405 nm) from each well was recorded using an ELISA plate reader. The values, expressed as optical density (OD), were plotted against the reciprocal of serum dilution.

[2] = system: mycobacterium tuberculosis; format: in vivo, BALB/c mice; conditions: 1-10 ng LTB4 with BCG vaccine, intradermal on days 0, 24, 68 and 145; sera at day 160
murine CMV [3] = assay: Total anti-CMV antibodies following acute CMV infection in BALB/c mice (ELISA); format: in vivo; conditions: LTB4 5 μg/kg i.p. 3 times a week for 12 weeks from day 5 post-infection
Protocol: Our next series of experiments were designed to test the potential of LTB4 to modulate antibody response during an acute CMV infection. BALB/c mice were infected by intraperitoneal (i.p.) injection with 10,000 pfu of murine CMV. On day 5 post-infection, mice (n=10) received saline by i.p. injection or LTB4 (5 μg/kg) (n=9) by i.p. injection 3 times a week for 12 weeks. At that time, sera was taken from each mouse and tested for anti-CMV specific antibodies.
Adult (6-8 weeks) female BALB/c mice were infected by intraperitoneal (I.P.) injection with 1×10^4 pfa of murine CMV. Starting on the fifth day post-infection, mice were injected with saline or LTB4 (5 μg/kg) by I.P. injection at a frequency of three times a week for 12 weeks. Mice were then bled and sacrificed. Total anti-CMV antibodies from each mouse were quantified by ELISA. ELISA plates were coated with a lysates from CMV-infected fibroblasts as the source of CMV antigens. One μg of protein lysates were added to each well and incubated-overnight at 4° C. After several washes with TBS-T, non-specific sites were blocked by the addition of saline containing 10% fetal bovine serum for one hour at room temperature. […] After 30 minutes, the absorbance (405 nm) from each well was recorded using an ELISA plate reader. The values, expressed as optical density (OD), were plotted against the reciprocal of serum dilution. […]

SMILES: CCCCC/C=C\C[C@@H](O)/C=C/C=C/C=C\[C@@H](O)CCCC(=O)O [LTB4, Leukotriene B4]
- effect on B cell proliferation or immunoglobulin synthesis (IgG or IgM) (B lymphocytes; LTB4 by itself, in absence of exogenous cytokines or stimuli, in vitro): no effects
- effect on synthesis of immunoglobulin from B lymphocytes (B lymphocytes; conflicting paper (Rola-Plecszczynski 1982)): inhibitory effects
- reduction of CMV infectivity by sera positive for CMV neutralization (average) (murine CMV [1]): 45%
- anti-Influenza IgG antibody response (ELISA OD) versus vaccine + saline (Influenza; 1 ng LTB4 with 5 μl Fluviral vaccine, once, sera at day 14, p<0.05 in all three dilutions): greater anti-Influenza antibody response; also recorded: significantly higher anti-Influenza antibody response
- optimal dose of LTB4 as adjuvant (Influenza; with 5 μl Fluviral vaccine): 1 ng
- anti-BCG antibodies (ELISA OD) versus BCG + saline [2]: higher levels of anti-BCG antibodies; also recorded: greater reactivity against mycobacterium antigens
- total anti-CMV antibodies (ELISA OD) versus saline-treated group (murine CMV [3]): more anti-CMV antibodies
